Experimental data published in patent US8658659B2, “Substituted oxazole derivatives and their use as tyrosine kinase inhibitors” (AB Science, priority 2005, dated 2014).

In the case of Cc1ccc(Nc2nc3cc(Cl)ccc3o2)cc1Nc1ncc(-c2ccncc2)o1 [Compound 005, N1-(5-Chloro-benzooxazol-2-yl)-4-methyl-N3-(5-pyridin-4-yl-oxazol-2-yl)-benzene-1,3-diamine], the melting point is reported as 229 °C.
In the case of Cc1ccc(NCC(=O)c2ccc(F)cc2)cc1Nc1ncc(-c2ccc(C#N)cc2)o1 [Compound 027, 4-(2-{5-[2-(4-Fluoro-phenyl)-2-oxo-ethylamino]-2-methyl-phenylamino}-oxazol-5-yl)-benzonitrile], the melting point is reported as 199 °C.
Compound Cc1ccc(Nc2nc3ccccc3o2)cc1Nc1ncc(-c2cccnc2)o1 [Compound 004, N1-Benzooxazol-2-yl-4-methyl-N3-(5-pyridin-3-yl-oxazol-2-yl)-benzene-1,3-diamine] has a melting point of 238 °C.
Work on Cc1ccc(Nc2nc3ccccc3o2)cc1Nc1ncc(-c2ccc(C#N)cc2)o1 [Compound 002, 4-{2-[5-(Benzooxazol-2-ylamino)-2-methyl-phenylamino]-oxazol-5-yl}-benzonitrile] yielded a melting point of 236 °C.
With Cc1ccc(Nc2nc3cc(F)ccc3o2)cc1Nc1ncc(-c2ccncc2)o1 [Compound 009, N1-(5-Fluoro-benzooxazol-2-yl)-4-methyl-N3-(5-pyridin-4-yl-oxazol-2-yl)-benzene-1,3-diamine] the melting point was 170 °C.
In the case of Cc1ccc(N2CCN(c3cccc(F)c3)C2=O)cc1Nc1ncc(-c2ccc(C(N)=O)cc2)o1 [Compound 013, 4-(2-{5-[3-(3-Fluoro-phenyl)-2-oxo-imidazolidin-1-yl]-2-methyl-phenylamino}-oxazol-5-yl)-benzamide], the melting point is reported as over 260 °C.
Cc1ccc(C(=O)CCc2ccccc2)cc1Nc1ncc(-c2ccncc2)o1 [Compound 017, 1-[4-Methyl-3-(5-pyridin-4-yl-oxazol-2-ylamino)-phenyl]-3-phenyl-propan-1-one] showed a melting point of 138 °C.
Compound Cc1ccc(Nc2nc3ccccc3s2)cc1Nc1ncc(-c2ccc(C#N)cc2)o1 [Compound 003, 4-{2-[5-(Benzothiazol-2-ylamino)-2-methyl-phenylamino]-oxazol-5-yl}-benzonitrile] has a melting point of 216 to 220 °C.
For Cc1ccc(Nc2nc3ccc(Cl)cc3o2)cc1Nc1ncc(-c2ccncc2)o1 [Compound 006, N1-(6-Chloro-benzooxazol-2-yl)-4-methyl-N3-(5-pyridin-4-yl-oxazol-2-yl)-benzene-1,3-diamine], the melting point was over 260 °C.
Work on Cc1ccc(NS(=O)(=O)Cc2ccccc2)cc1Nc1ncc(-c2ccncc2)o1 [Compound 001, N-[4-Methyl-3-(5-pyridin-4-yl-oxazol-2-ylamino)-phenyl]-C-phenyl-methane sulfonamide] yielded a melting point of 258 °C.
In the case of CCS(=O)(=O)c1ccc2oc(Nc3ccc(C)c(Nc4ncc(-c5ccncc5)o4)c3)nc2c1 [Compound 007, N1-(5-Ethanesulfonyl-benzooxazol-2-yl)-4-methyl-N3-(5-pyridin-4-yl-oxazol-2-yl)-benzene-1,3-diamine], the melting point is reported as 252 °C.
Work on CC(=O)c1ccc(C)c(Nc2ncc(-c3ccc(C#N)cc3)o2)c1 [Compound 018, 4-[2-(5-Acetyl-2-methyl-phenylamino)-oxazol-5-yl]-benzonitrile] yielded a melting point of 240 °C.
With Cc1ccc(C(=O)CCc2cccc(F)c2)cc1Nc1ncc(-c2ccc(C#N)cc2)o1 [Compound 021, 4-(2-{5-[3-(3-Fluoro-phenyl)-propionyl]-2-methyl-phenylamino}-oxazol-5-yl)-benzonitrile] the melting point was 157 °C.
In the case of Cc1ccc(NCC(=O)c2ccc(F)cc2)cc1Nc1ncc(-c2ccncc2)o1 [Compound 023, 1-(4-Fluoro-phenyl)-2-[4-methyl-3-(5-pyridin-4-yl-oxazol-2-ylamino)-phenylamino]-ethanone], the melting point is reported as 202 °C.
Cc1ccc(C(=O)CCc2ccccc2)cc1Nc1ncc(-c2ccc(C#N)cc2)o1 [Compound 020, 4-{2-[2-Methyl-5-(3-phenyl-propionyl)-phenylamino]-oxazol-5-yl}-benzonitrile] gave a melting point of 138 °C.
In the case of Cc1ccc(N2CCN(c3cccc(F)c3)C2=O)cc1Nc1ncc(-c2ccc(C#N)cc2)o1 [Compound 011, 4-(2-{5-[3-(3-Fluoro-phenyl)-2-oxo-imidazolidin-1-yl]-2-methyl-phenylamino}-oxazol-5-yl)-benzonitrile], the melting point is reported as 221 °C.
For Cc1ccc(N2CCN(c3cccc(C#N)c3)C2=O)cc1Nc1ncc(-c2ccc(C#N)cc2)o1 [Compound 012, 4-(2-{5-[3-(3-cyano-phenyl)-2-oxo-imidazolidin-1-yl]-2-methyl-phenylamino}-oxazol-5-yl)-benzonitrile], the melting point was over 260 °C.
In the case of Cc1ccc(N(C)CC(=O)c2ccc(F)cc2)cc1Nc1ncc(-c2ccncc2)o1 [Compound 024, 1-(4-Fluoro-phenyl)-2-{methyl-[4-methyl-3-(5-pyridin-4-yl-oxazol-2-ylamino)-phenyl]-amino}-ethanone], the melting point is reported as 230 °C.
In the case of CC(=O)c1ccc(C)c(Nc2ncc(-c3ccc(C(N)=O)cc3)o2)c1 [Compound 022, 4-[2-(5-Acetyl-2-methyl-phenylamino)-oxazol-5-yl]-benzamide], the melting point is reported as over 260 °C.
Cc1ccc(N(C)CC(=O)c2ccc(C#N)cc2)cc1Nc1ncc(-c2ccncc2)o1 [Compound 025, 4-({Methyl-[4-methyl-3-(5-pyridin-4-yl-oxazol-2-ylamino)-phenyl]-amino}-acetyl)-benzonitrile] gave a melting point of 218 °C.
With Cc1ccc(Nc2nc3ccc(F)cc3o2)cc1Nc1ncc(-c2ccncc2)o1 [Compound 010, N1-(6-Fluoro-benzooxazol-2-yl)-4-methyl-N3-(5-pyridin-4-yl-oxazol-2-yl)-benzene-1,3-diamine] the melting point was 260 °C.
Work on Cc1ccc(C(=O)CCc2ccc(F)cc2)cc1Nc1ncc(-c2ccc(C#N)cc2)o1 [Compound 019, 4-(2-{5-[3-(4-Fluoro-phenyl)-propionyl]-2-methyl-phenylamino}-oxazol-5-yl)-benzonitrile] yielded a melting point of 175 °C.
In the case of Cc1ccc(N2CCN(c3cccc(C(F)(F)F)c3)C2=O)cc1Nc1ncc(-c2ccncc2)o1 [Compound 015, 1-[4-Methyl-3-(5-pyridin-4-yl-oxazol-2-ylamino)-phenyl]-3-(3-trifluoromethyl-phenyl)-imidazolidin-2-one], the melting point is reported as 198 to 200 °C.
With Cc1ccc(NCC(=O)c2ccccc2)cc1Nc1ncc(-c2ccncc2)o1 [Compound 026, 2-[4-Methyl-3-(5-pyridin-4-yl-oxazol-2-ylamino)-phenylamino]-1-phenyl-ethanone] the melting point was 152 °C.
